Patent publication US10542753B2, “Compositions for improving budbreak and flowering” (Zelam Limited, priority 2015, dated 2020)

Tests used:
[1] = Pahokee muck soil under varying agricultural practices; cited from earlier work
[2] = cited from earlier work
[3] = tested on: Gold3; assay: Trial 5: sprayed trial after poor winter chill (Bay of Plenty); type: in vivo, Actinidia chinensis Planch. var. chinensis 'Zesy002'
Method: (§1) These 2014 sprayed trials were performed in the Bay of Plenty (Trial 5, five replicates, each a bay comprising two vines with ten assessment canes per rep, five on each side of the bay) and Hawkes Bay, NZ (Trial 6, four replicates, each a bay comprising four vines with twenty assessment canes per rep, five from each vine). HC (700 litres/Ha) and Examples 9 and 10 (800 litres/Ha) were sprayed on 16-Aug (37 DBNB, Trial 5) and 11-Aug (30 DBNB, Trial 6). FIG. 7 illustrates the progression of budbreak in Trial 5 and FIG. 8 illustrates the progression of budbreak in Trial 6.
(§2) Under current management practices Gold3 growers require at least about 1.8 single flowers per winter bud (SFWB) to achieve the recommended packout of 17,000 trays/Ha.

[4] = tested on: Gold3; assay: Trial 6: sprayed trial after good winter chill (Hawkes Bay); type: in vivo, Actinidia chinensis Planch. var. chinensis 'Zesy002'
Method: as §1, §2

[5] = tested on: Gold3 kiwifruit; assay: Trial 4: cane painting, budbreak and flowering; type: in vivo, Actinidia chinensis Planch. var. chinensis 'Zesy002'; parameters: Spread of BB / Advance in Midpoint / Reduction in Spread: unit not given here; conditions: for KFFS: king flowers per floral shoot; for KFWB: king flowers per winter bud; for Advance in Midpoint / Reduction in Spread: vs untreated
Method: This cane painting experiment was performed in a Bay of Plenty orchard in 2013 following a winter with poor chill in the key months of May and June. Low-medium vigour canes typical of the orchard were painted with either HC or Example 9 on 13-Aug and 20-Aug, 34 and 27 days before natural budbreak which occurred on 16-Sep. […] FIG. 5 illustrates the progression of budbreak and FIG. 6 illustrates the progress of flowering in Trial 4.

[6] = tested on: Psa; assay: Trial 3: whole-vine spray in Psa-infected orchard, Psa leaf spotting; type: in vivo, Hayward kiwifruit vines; conditions: for % Incidence: Psa leaf spotting
Excerpt: A trial in which whole Hayward kiwifruit vines were sprayed was established in the Bay of Plenty in 2013. There were twelve replicates and two sets of untreated vines. HC (700 litres/Ha) and the composition of Example 8 (800 litres/Ha) were applied on three dates using a boom sprayer designed to produce spray deposition typical of an orchard air blast sprayer. Of particular interest in this trial was the prevalence of Psa leaf spotting that became evident in late spring, particularly in the early HC-sprayed vines. Vines were assessed for Psa leaf spotting by rating 40 randomly selected leaves (10 on each side of the two leaders that made up each vine) on a 1-5 scale (Table 4).

[7] = tested on: Hayward kiwifruit; assay: Trial 1: cane painting, budbreak and flowering; type: in vivo, Actinidia deliciosa; conditions: for Spread of BB: spread = 4x standard deviation; for Advance in Midpoint / Reduction in Spread: vs untreated
Method: A cane painting experiment was performed in a Hayward kiwifruit orchard in the Bay of Plenty New Zealand in 2010 following a winter with average winter chill. Low-medium vigour canes of 1.6 m average length from 36 vines were tagged and either left untreated or painted with one of HC, Examples 1-4 and Comparative Example 1. The date of painting (6-Aug) was 56 days before natural budbreak (DBNB). Budbreak (BBCH stage 9) and flowering (BBCH stage 60) were determined based on the photographs published by Salinero et al., 2009, “Phenological growth stages of kiwifruit (Actinidia deliciosa ‘Hayward’)”, Scientia Horticulturae 121, 27-31, which is hereby incorporated by reference in its entirety. Graphed and tabulated data represent averages of the 36 replicates and are normalised based on the number of winter buds on each cane.
FIG. 1 illustrates the progression of budbreak in Trial 1. FIG. 2 illustrates the progression of flowering in Trial 1. The progress curves depicted in FIGS. 1 and 2 were fitted to a cumulative normal curve to calculate the midpoints of budbreak and flowering (the dates corresponding to a 50% response) and spread of response time (defined as 4× standard deviation) as summarised in Tables 1 and 2.

[8] = tested on: Hayward kiwifruit vines; assay: Trial 2: cane painting, salicylic acid dose-response, budbreak; type: in vivo, Actinidia deliciosa
Method: A cane painting experiment was performed in 2012 in a Hayward kiwifruit orchard in Taranaki, New Zealand. Canes of 1.2 m average length from 33 vines were tagged and either left untreated or painted with one of HC, Examples 5-8 and Comparative Examples 2 and 3 on 9-Aug, 50 DBNB (28-Sep). Midpoints and spread were calculated for budbreak (Table 3) but there were insufficient data to perform the calculations for flowering. […] FIG. 3 illustrates the progression of budbreak in Trial 2. FIG. 4 illustrates the progress of flowering in Trial 2.

[9] = tested on: Granny Smith Apples; assay: Trial 8: sprayed trees, budbreak, flowering and fruit set on fruiting spurs; type: in vivo
Method: Trial 8: Use on Granny Smith Apples was evaluated in New Plymouth, New Zealand following a poor winter chill in 2013. Treatments were applied on 9 Aug. 2013 at 200 L/Ha using a manual backpack sprayer in a replicated trial (4 replications of two tree plots).

[10] = Trial 5, Bay of Plenty, poor winter chill

In the case of `O=C(O)c1ccccc1O` [Salicylic acid, salicylic acid], the Biodegradation [1] is given as “rapid”, the Solubility in ethanol ([2]; 21° C.) is given as 34.87 % w/w and the Solubility in propanol ([2]; 21° C.) is given as 27.36 % w/w. For the same compound, the Solubility in benzene ([2]; 25° C.) was 0.775 % w/w.

For `N#CN` [HC, hydrogen cyanamide], the “flower numbers (in words)” value [3, 10] was “excessive flower numbers”, the “frequency of double and triple flowers / laterals (in words)” value [3, 10] was “nearly doubled” and the “% Double flowers” value ([3]; in vivo) was 14.4%. The “% Laterals” value ([3]; in vivo) was 18.7%, the “% Triple flowers” value ([3]; in vivo) was 4.3% and the KFWB ([3]; king flowers per winter bud) was 3.1. The SFWB ([3]; single flowers per winter bud) was 2.5, the “% Budbreak” value ([3]; sprayed 16-Aug (37 DBNB)) was 56.9% and the “frequency of laterals (in words)” value ([4]; Trial 6, Hawkes Bay, good winter chill) was “further increased”. The “% Laterals” value ([4]; in vivo) was 31.2%, the KFWB ([4]; king flowers per winter bud) was 2.61 and the SFWB ([4]; single flowers per winter bud) was 1.8. For the same compound, the “% Budbreak” value ([4]; sprayed 11-Aug (30 DBNB)) was 55.9%, the “frequency of lateral flowers (doubles and triples) (in words)” value ([5]; Trial 4) was “increased the frequency of lateral flowers” and the “king flowers per winter bud (KFWB) (in words)” value ([5]; Trial 4, vs untreated) was “large increases”. It also gave a KFFS ([5]; painted 27 DBNB (20-Aug)) of 2.35, a KFFS ([5]; painted 34 DBNB (13-Aug)) of 2.90 and a KFWB ([5]; painted 27 DBNB (20-Aug)) of 1.19. The KFWB ([5]; painted 34 DBNB (13-Aug)) was 1.48, the “% Budbreak” value ([5]; painted 27 DBNB (20-Aug)) was 72.1% and the “% Deformed” value ([5]; painted 27 DBNB (20-Aug)) was 0.2%. For the same compound, the “% Laterals” value ([5]; painted 27 DBNB (20-Aug)) was 1.8%, the Floral shoots ([5]; painted 27 DBNB (20-Aug)) was 71% and the “Spread of BB” value ([5]; painted 27 DBNB (20-Aug)) was 24. The “Advance in Midpoint” value ([5]; painted 27 DBNB (20-Aug)) was 15, the “Reduction in Spread” value ([5]; painted 27 DBNB (20-Aug)) was 17 and the “% Budbreak” value ([5]; painted 34 DBNB (13-Aug)) was 64.5%. The “% Deformed” value ([5]; painted 34 DBNB (13-Aug)) was 1.7%, the “% Laterals” value ([5]; painted 34 DBNB (13-Aug)) was 9.9% and the Floral shoots ([5]; painted 34 DBNB (13-Aug)) was 83%. The “Spread of BB” value ([5]; painted 34 DBNB (13-Aug)) was 12, the “Advance in Midpoint” value ([5]; painted 34 DBNB (13-Aug)) was 19 and the “Reduction in Spread” value ([5]; painted 34 DBNB (13-Aug)) was 30. The “change in Psa leaf spotting (ANOVA, in words)” value ([6]; HC after the first two applications, Example 8 at all application dates) was “significant increase”, the “% Incidence” value ([6]; applied 15-Aug (46 DBNB)) was 51.5 a % and the “% Incidence” value ([6]; applied 24-Aug (37 DBNB)) was 21.7 b %. For the same compound, the “% Incidence” value ([6]; applied 30-Aug (31 DBNB)) was 18.3 bc %, the Leaf spotting score ([6]; applied 15-Aug (46 DBNB), 40 leaves rated on 1-5 scale) was 1.15 a and the Leaf spotting score ([6]; applied 24-Aug (37 DBNB)) was 0.42 b. The Leaf spotting score ([6]; applied 30-Aug (31 DBNB)) was 0.31 bc, the “Spread of BB” value ([7]; Table 2, flowering) was 7 and the “Advance in Midpoint” value ([7]; Table 2, flowering) was 6. The “Reduction in Spread” value ([7]; Table 2, flowering) was 9, the “Spread of BB” value ([7]; budbreak) was 17 and the “Advance in Midpoint” value ([7]; budbreak) was 16. The “Reduction in Spread” value ([7]; budbreak) was 32, the “budbreak response (in words)” value ([8]; Trial 2, FIG. 3, vs untreated) was “improved considerably” and the “Spread of BB” value ([8]; budbreak) was 19. For the same compound, the “Advance in Midpoint” value ([8]; budbreak, vs untreated) was 12, the “Reduction in Spread” value ([8]; budbreak, vs untreated) was 7 and the “% Budbreak 28 DAA” value ([9]; 28 DAA) was 14%. The “% Budbreak 39 DAA” value ([9]; 39 DAA) was 39%, the “% Budbreak 47 DAA” value ([9]; 47 DAA) was 34% and the “% Flowering 54 DAA” value ([9]; 54 DAA) was 66%. The “% Fruit set 74 DAA” value ([9]; 74 DAA) was 16%.
